These results are taken from patent publication US20230330120A1, “COMPOSITION FOR PREVENTING HAIR LOSS OR PROMOTING HAIR REGROWTH” (LG HOUSEHOLD & HEALTH CARE LTD., priority 2020, published 2023).

Test [1] deals with β-catenin. Nature of the test: Expression of β-catenin protein in dermal papilla cells (SDS-PAGE / anti-β-catenin antibody). Format: cell-based, human. The conditions noted are these: for activity at 2 µg/mL / activity at 20 µg/mL: Homo sapiens, 24 h, read-out: Expression level of β-catenin protein (%). How it is done:
Human dermal papilla cells were seeded onto a 6-well plate at 500,000 cells/well and then incubated for 1 day after treating with 2 or 20 μg/mL valechlorine, tussilagone, periplocin, lysionotin, nitidine, lanosterol, engeletin, specnuezhenide, praeruptorin B, rotundic acid, sesamoside or polyphyllin VII. After the incubation, the cells were lysed using an M-PER lysis buffer and a cell lysate of the same volume was loaded on SDS-PAGE gel. After transferring the cell lysate loaded on the SDS-PAGE gel to a nitrocellulose membrane, proteins were detected by attaching anti-β-catenin antibodies to the nitrocellulose membrane. GAPDH was used as a control for calibrating the quantity of proteins. The amount of β-catenin increased by the valechlorine, tussilagone, periplocin, lysionotin, nitidine, lanosterol, engeletin, specnuezhenide, praeruptorin B, rotundic acid, sesamoside or polyphyllin VII was investigated. The control group was set at 100%, and the results were represented as a percentage compared to the control group as shown in Table 5.

The subject of test [2] is human-derived dermal papilla cells (DPCs). Nature of the test: Proliferation of dermal papilla cells (CCK-8). It counts as cell-based. The conditions noted are these: for activity at 2 µg/mL / activity at 20 µg/mL: read-out: Proliferation of dermal papilla cells (%). How it is done:
The effect of promoting the proliferation of dermal papilla cells was investigated using human-derived dermal papilla cells (DPCs). The human-derived dermal papilla cells were purchased from PromoCell. The DPCs were cultured using a medium (follicle dermal papilla cell growth medium; PromoCell, Heidelberg, Germany) and a medium additive (supplement mix; PromoCell, Heidelberg, Germany) recommended by PromoCell under the condition of 37° C. and 5% CO2. The cultured DPCs were seeded onto a 96-well plate at 3,000 cells/well and then cultured for 24 hours under 0.1% serum condition. Then, the cultured cells were incubated for 1 day after treating with DMSO diluted with serum-free DMEM to 1:1000 (vehicle), 0.1 μg/mL minoxidil as a positive control group, or at 2 or 20 μg/mL valechlorine, tussilagone, periplocin, lysionotin, nitidine, lanosterol, engeletin, specnuezhenide, praeruptorin B, rotundic acid, sesamoside or polyphyllin VII. After the incubation, cell proliferation was evaluated by the CCK method. CCK-8 was treated to a medium at 1:10 and then incubated for 1 hour. 1 hour later, the absorbance of each well was measured at 450 nm. All experiments were repeated 3 times and the average of absorbance was calculated. The control group was set at 100%, and the results were represented as a percentage compared to the control group.

Test [3] concerns β-catenin. Nature of the test: Expression of β-catenin protein in dermal papilla cells (SDS-PAGE / anti-β-catenin antibody). It counts as cell-based, human. The conditions noted are these: 0.5 μg/mL (positive control); control group = 100%.
Where [4] appears, read: 2 μg/mL, 1 day, control group = 100%, GAPDH calibration.
Setting [5] is: 20 μg/mL, 1 day, control group = 100%, GAPDH calibration.
Where [6] appears, read: Homo sapiens, 24 h, 2 μg/mL, 1 day, control group = 100%.
The mark [7] stands for this setting: Homo sapiens, 24 h, 20 μg/mL, 1 day, control group = 100%.

Like-named read-outs stand apart in the source and are kept apart here.

Regarding `C[C@@H]1CC[C@]2(C(=O)O)CC[C@]3(C)C(=CC[C@@H]4[C@@]5(C)CC[C@H](O)[C@@](C)(CO)[C@@H]5CC[C@]43C)[C@@H]2[C@]1(C)O` [Rotundic acid], the activity at 2 µg/mL was 211% in test [1] (setting [4]) and 156% in test [2] (setting [6]). The activity at 20 µg/mL in test [1] (setting [5]) turned out to be 258%; in test [2] (setting [7]), 183%.

As to `Nc1cc(N2CCCCC2)nc(N)[n+]1[O-]` [Minoxidil, reference compound], the activity at 0.1 µg/mL in test [2] (Homo sapiens, 24 h, 100 ng/ml (positive control), 1 day, control group = 100%) was 130%.

`C/C=C(\C)C(=O)OC1c2c(ccc3ccc(=O)oc23)OC(C)(C)C1OC(=O)/C(C)=C/C` (stereo not drawn) [Praeruptorin B]: in test [1], the activity at 2 µg/mL was 211% and the activity at 20 µg/mL was 250%. In test [2] (Homo sapiens, 24 h), the activity at 2 µg/mL is 144% and the activity at 20 µg/mL amounted to 173%.

In the case of `CC(=O)OCC1=CO[C@@H](OC(=O)CC(C)C)[C@H]2C1=C[C@H](OC(=O)CC(C)C)[C@]2(O)CCl` [Valechlorine], in test [1], the activity at 2 µg/mL stood at 217% and the activity at 20 µg/mL is 234%. Further, in test [2] (Homo sapiens, 24 h), the activity at 2 µg/mL is 146% and the activity at 20 µg/mL was found to be 159%.

`COc1cc2c[n+](C)c3c4cc5c(cc4ccc3c2cc1OC)OCO5` [Nitidine]: the values for the activity at 2 µg/mL in test [1] (setting [4]) and in test [2] (setting [6]) were 220% and 155%, respectively. In addition, the activity at 20 µg/mL was 262% in test [1] (setting [5]) and 181% in test [2] (setting [7]).

Consider `C/C=C1/[C@H](O[C@@H]2O[C@H](CO)[C@@H](O)[C@H](O)[C@H]2O)OC=C(C(=O)OC)[C@H]1CC(=O)OC[C@H]1O[C@@H](OCCc2ccc(O)cc2)[C@H](O)[C@@H](O)[C@@H]1O` [Specnuezhenide], for which the activity at 2 µg/mL in test [1] (setting [4]) was 216%; in test [2] (setting [6]) it was 150%. For the same molecule, the activity at 20 µg/mL was found to be 289% in test [1] (setting [5]) and 170% in test [2] (setting [7]).

For the molecule `CC(C)=CCC[C@@H](C)[C@H]1CC[C@@]2(C)C3=C(CC[C@]12C)[C@@]1(C)CC[C@H](O)C(C)(C)[C@@H]1CC3` [Lanosterol], the activity at 2 µg/mL in test [1] (setting [4]) is 241%; in test [2] (setting [6]) it was 143%. Further, the activity at 20 µg/mL in test [1] (setting [5]) was 246%; in test [2] (setting [7]) it was 189%.

With `COc1ccc(-c2cc(=O)c3c(O)c(OC)c(O)c(OC)c3o2)cc1` [Lysionotin], the activity at 2 µg/mL in test [1] (setting [4]) worked out at 210%; in test [2] (setting [6]) it was 164%. The activity at 20 µg/mL in test [1] (setting [5]) came out at 232%; in test [2] (setting [7]), 179%.

Take Engeletin: the “Expression level of β-catenin protein (%)” value in test [1] (setting [4]) was found to be 231.1%; in test [1] (setting [5]) it was 276.3%. The “Proliferation of dermal papilla cells (%)” value in test [2] (2 μg/mL, 1 day, control group = 100%) amounted to 143.2%; in test [2] (20 μg/mL, 1 day, control group = 100%) it was 188.1%.

`COC(=O)C1=CO[C@@H](O[C@@H]2O[C@H](CO)[C@@H](O)[C@H](O)[C@H]2O)[C@@H]2[C@@]3(C)O[C@H]3[C@@H](O)[C@]12O` [Sesamoside]: the activity at 2 µg/mL in test [1] (setting [4]) came out at 245%; in test [2] (setting [6]), 168%. In addition, the activity at 20 µg/mL in test [1] (setting [5]) is 295%; in test [2] (setting [7]) it was 194%.

As to `C=C1[C@H](OC(=O)/C=C(\C)CC)C[C@@H](C(C)C)[C@@H]2[C@@H]([C@H](C)OC(C)=O)C(=O)C[C@@H]12` [Tussilagone], the values for the activity at 2 µg/mL in test [1] (setting [4]) and in test [2] (setting [6]) were 208% and 157%, respectively. The figures for the activity at 20 µg/mL in test [1] (setting [5]) and in test [2] (setting [7]) were 253% and 178%, respectively.

B1: Wnt3a: Wnt3a protein (positive control group) which binds directly to the receptor of Wnt/β-catenin (protein, UniProt P56704 19-352, looked up)
Protein Wnt-3a: SYPIWWSLAVGPQYSSLGSQPILCASIPGLVPKQLRFCRNYVEIMPSVAEGIKIGIQECQHQFRGRRWNCTTVHDSLAIFGPVLDKATRESAFVHAIASAGVAFAVTRSCAEGTAAICGCSSRHQGSPGKGWKWGGCSEDIEFGGMVSREFADARENRPDARSAMNRHNNEAGRQAIASHMHLKCKCHGLSGSCEVKTCWWSQPDFRAIGDFLKDKYDSASEMVVEKHRESRGWVETLRPRYTYFKVPTERDLVYYEASPNFCEPNPETGSFGTRDRTCNVSSHGIDGCDLLCCGRGHNARAERRREKCRCVFHWCCYVSCQECTRVYDVHTCK
With B1, the “Expression level of β-catenin protein (%)” value in test [3] turned out to be 208.8%.
